Assay results: US7468391B2, “Methods for treating retinoid responsive disorders using selective inhibitors of CYP26A and CYP26B” (Allergan, Inc., priority 2003, dated 2008)
Several values for one entry are separate records, joined by “and”; a condition that tells them apart may be missing. Equal values may be shown once. Entries after “also recorded” stand apart in the source; their conditions may differ. Read-outs that look alike come from different tables or passages of the source.

What was measured:
[1] = test system: hamster flank organ sebaceous gland; assay: Hamster flank organ sebaceous gland differentiation (model for acne); type: in vivo, male golden syrian hamsters; details: for sebaceous gland differentiation in hamster flank organ: oral gavage, 6 days/week for 4 weeks
Experimental: Differentiation of hamster flank organ sebaceous gland is a model system for development of acne. To determine the effectiveness of selective CYP26B inhibitors for treating acne, such inhibitors were tested in this model system. To confirm that this model system can predict the effectiveness of a compound in reducing acne, 13-cis retinoic acid (acutane) was used as a positive control.
(§1) For the hamster model system, male golden syrian hamsters were fed LabDiet#5002 rodent diet and housed individually on a 14/10 hr light/dark cycle. For treatment, the animals were randomized according to body weight and they were also weighed at each treatment so that the drug doses could be adjusted accordingly. The animals were treated daily by oral gavage, 6 days/week for 4 weeks. At the end of treatments, the animals were sacrificed by carbon dioxide inhalation. The flank organs were then excised and spread on a small piece of index card which was placed in a histology cassette for fixation in 10% buffered formaldehyde. The specimen was divided into 5 equally spaced portions to make paraffin blocks and one 5-micrometer H&E sections was prepared from each block. The two sections that contained the most sebaceous glands were used to determine the average acini area of the flank organ. A video camera attached to a standard microscope with the 4× objective was used to capture the images of the sebaceous glands. Computer programs Videoshop and NIH Image 1.63 were used to quantify the acini areas. All the recognizable sebaceous glands in the two sections were analyzed and the means were derived for comparison among various treatments. In all studies, blood samples were also collected for determining the levels of serum triglyceride using a triglyceride GPO Trinder kit from Sigma Chemicals (St. Louis, Mo.).

[2] = type: in vivo
Experimental: as §1
Experimental results showing the effect of various retinoid compounds on differentiation of sebaceous gland in […] flank organ were generated.

[3] = test system: hacyp26a; assay: Taqman RT-PCR of CYP26A expression in hamster flank organ sebaceous gland; type: in vivo
Experimental: (§2) Because CYP26 functions in cells to reduce retinoic acid receptor signaling, the effect of inhibiting CYP26 to increase retinoic acid receptor signaling, and thereby reduce differentiation of hamster sebaceous gland differentiation, was examined. The expression of CYP26A and CYP26B in hamster flank organ sebaceous gland was determined using Taqman RT-PCR. Hamsters were treated as described above and sacrificed at various time points (1 day to 3 weeks). The flank organs were excised and placed under a dissecting microscope. Sebaceous glands were removed and put into liquid nitrogen immediately. RNAs were isolated from the glands using Trizol reagents (Invitrogen; San Diego, Calif.) as described by the manufacturer. The RNAs were treated with DNase to remove contaminating genomic DNAs and further purified with the DNA-free kit (Ambion; Austin, Tex.). Quantitative RT-PCR was performed on an ABI 7700 machine using Invitrogen's Platinum qRT-PCR kit with CYP26-specific primers and probes.

[4] = test system: hacyp26b; assay: Taqman RT-PCR of CYP26B expression in hamster flank organ sebaceous gland; type: in vivo
Experimental: as §2

[5] = test system: human patients; details: Kuijpers, et al. (1998); cited from earlier work

**Q.** Which results are given for CC1=C(/C=C/C(C)=C\C=C\C(C)=C/C(=O)O)C(C)(C)CCC1=O [4-oxo-13-cis RA]?
**A.** sebaceous gland differentiation in hamster flank organ [1]: appeared to be more effective; toxicity ([2]; hamster flank organ study): lower toxicity levels

**Q.** Which “hacyp26a Ct” value ([3]; HFO-9, 1w, listed as 13cisRA) does the source give for CC1=C(/C=C/C(C)=C/C=C/C(C)=C\C(=O)O)C(C)(C)CCC1 [13-cis retinoic acid] here?
**A.** 29.8 and 29.6

**Q.** And the “hacyp26a Relative to Veh” value ([3]; HFO-9, 1w, listed as 13cisRA)?
**A.** 12.1× and 13.9×

**Q.** And the “hacyp26a Ct” value ([3]; HFO-9, 2w)?
**A.** 30.1

**Q.** What about the “hacyp26a Relative to Veh” value ([3]; HFO-9, 2w) of the same compound?
**A.** 9.8×

**Q.** What about the “hacyp26a Ct” value ([3]; HFO-9, 3w, listed as 13cisRA) of the same compound?
**A.** 33 and 31.9

**Q.** What about the “hacyp26a Ct” value ([3]; HFO-9, 4d) of the same compound?
**A.** 28.1

**Q.** And the “hacyp26a Relative to Veh” value ([3]; HFO-9, 4d)?
**A.** 22.6×

**Q.** And the “CYP26A expression in hamster flank sebaceous gland” value ([3]; Table 2)?
**A.** induced

**Q.** What about the “sebaceous gland differentiation in hamster flank organ” value [1] of the same compound?
**A.** effective in reducing sebaceous gland differentiation; also recorded: appeared to be more effective

**Q.** What about the “hacyp26b Ct” value ([4]; HFO-9, 1w, listed as 13cisRA) of the same compound?
**A.** 30.5 and 31.8

**Q.** And the “hacyp26b Ct” value ([4]; HFO-9, 2w)?
**A.** 34.1

**Q.** What about the “hacyp26b Relative to veh” value ([4]; HFO-9, 2w) of the same compound?
**A.** 0.6×

**Q.** What about the “hacyp26b Ct” value ([4]; HFO-9, 3w, listed as 13cisRA) of the same compound?
**A.** 36.7 and 35.7

**Q.** And the “hacyp26b Relative to veh” value ([4]; HFO-9, 3w, listed as 13cisRA)?
**A.** 0.1× and 0.2×

**Q.** And the “hacyp26b Ct” value ([4]; HFO-9, 4d)?
**A.** 30.6

**Q.** And the “hacyp26b Relative to veh” value ([4]; HFO-9, 4d)?
**A.** 13×

**Q.** What about the “CYP26B expression in hamster flank sebaceous gland” value ([4]; Table 2) of the same compound?
**A.** induced

**Q.** And the toxicity ([2]; hamster, in vivo)?
**A.** lower toxicity levels

**Q.** For Clc1cccc(C(c2ccc3[nH]cnc3c2)n2ccnc2)c1 (centres unmarked) [liarozole], which “effect of treatment in human patients” value [5] is on record?
**A.** amelioration of psoriasis

**Q.** Which toxicity ([2]; hamster, in vivo) does the source give for C/C(=C\c1ccc(C(=O)O)cc1)c1ccc2c(c1)C(C)(C)CCC2(C)C [TTNPB] here?
**A.** observed at effective doses

**Q.** For CCc1ccc(C2=CC(C)(C)Sc3ccc(C#Cc4ccc(C(=O)O)cc4)cc32)cc1 [AGN194310], which “effect on the 13-cis retinoic acid-induced reduction in sebaceous gland differentiation” value ([1]; given with 13-cis retinoic acid, FIG. 2) is on record?
**A.** blocked the effect of 13-cis retinoic acid treatment on sebaceous gland differentiation
